Laboratory results taken from patent publication US11952586B2, “B-cell cultivation method” (Hoffmann-La Roche Inc., priority 2017, dated 2024).

System: single deposited B-cells
Assay: co-cultivation of single deposited B-cells with EL-4 B5 feeder cells; IgG in supernatant by ELISA
Type: cell-based, rabbit
Conditions: for average productivity/plate, IgG+ wells / frequency/plate rbIgG+: non-immunized animal
Description: Single cell sorted B-cells were cultured in 96-well plates with 200 μl/well EL-4 B5 medium with Pansorbin Cells (SAC) (Calbiochem (Merck), Darmstadt, Deutschland), EL-4 B5 cells (0-5×10^4/well) and rabbit thymocyte supernatant or cytokine mix, respectively, for 7 days at 37° C. in an atmosphere of 5% CO2 in the incubator. B-cell culture supernatants were removed for screening and the cells harvested immediately for variable region gene cloning or frozen at −80° C. in 100 μl RLT buffer (Qiagen, Hilden, Germany).
A mixture of 0.5 μg/ml of biotinylated mouse anti-rabbit IgG antibody (Sigma-Aldrich) and 0.35 μg/ml anti-rabbit IgG HRP conjugate (Sigma-Aldrich) was transferred to 384 well streptavidin coated microtiter plates (MicroCoat Biotechnologie GmbH). Dilutions of B-cell supernatants in PBS supplemented with 0.5% BSA and 0.05% Tween®-20 were added and incubated for 90 min at RT. After repeated washing (6×) with PBST (phosphate buffered saline with 0.2% Tween buffer the plates were developed with BM Blue® HRP substrate solution and color formation was measured by absorbance at 370 nm. A commercial rabbit IgG (Sigma-Aldrich) was used as a calibration standard.

[1] = PMA 0.57 ng/ml, 50 Gy, 50k/Well
[2] = PMA 1.3 ng/ml, 3 Gy, 15k/Well, HSA immunized rabbit
[3] = c(PMA) 0.015 ng/ml, 4 Gy EL-4 B5
[4] = c(PMA) 0.03 ng/ml, 4 Gy EL-4 B5
[5] = c(PMA) 0.03 ng/ml, 50 Gy EL-4 B5
[6] = c(PMA) 0.06 ng/ml, 4 Gy EL-4 B5
[7] = c(PMA) 0.125 ng/ml, 4 Gy EL-4 B5
[8] = c(PMA) 0.25 ng/ml, 4 Gy EL-4 B5
[9] = c(PMA) 0.25 ng/ml, 50 Gy EL-4 B5
[10] = c(PMA) 1.3 ng/ml, 50 Gy EL-4 B5

Compound: CCCCCCCCCCCCCC(=O)O[C@@H]1[C@@H](C)[C@@]2(O)[C@@H](C=C(CO)C[C@]3(O)C(=O)C(C)=C[C@@H]23)[C@@H]2C(C)(C)[C@]12OC(C)=O [PMA, phorbol-12-myristate-13-acetate]
- frequency per plate of rbIgG-positive wells (PMA 0.43 ng/ml, 0.1x CM, 5,000 non-irradiated EL-4 B5 cells per well): 72.6 % total
- frequency per plate of rbIgG-positive wells (PMA 0.43 ng/ml, 0.31x CM, 5,000 non-irradiated EL-4 B5 cells per well): 71.4 % total
- frequency per plate of rbIgG-positive wells (PMA 0.43 ng/ml, 1x CM, 5,000 non-irradiated EL-4 B5 cells per well): 50.0 % total
- frequency per plate of rbIgG-positive wells (PMA 0.43 ng/ml, 2x CM, 5,000 non-irradiated EL-4 B5 cells per well): 45.2 % total
- Average IgG Productivity of all IgG+ wells (PMA 0.57 ng/ml, 3 Gy, 15k/Well): 6.067 µg/mL
- IgG+ Frequency (PMA 0.57 ng/ml, 3 Gy, 15k/Well): 32.1 % total wells
- Average IgG Productivity of all IgG+ wells (PMA 0.57 ng/ml, 4 Gy, 20k/Well): 5.834 µg/mL
- IgG+ Frequency (PMA 0.57 ng/ml, 4 Gy, 20k/Well): 72.6 % total wells
- Average IgG Productivity of all IgG+ wells (PMA 0.57 ng/ml, 5 Gy, 20k/Well): 5.269 µg/mL
- IgG+ Frequency (PMA 0.57 ng/ml, 5 Gy, 20k/Well): 86.9 % total wells
- Average IgG Productivity of all IgG+ wells (PMA 0.57 ng/ml, 8 Gy, 20k/Well): 5.72 µg/mL
- IgG+ Frequency (PMA 0.57 ng/ml, 8 Gy, 20k/Well): 81 % total wells
- Average IgG Productivity of all IgG+ wells [1]: 4.876 µg/mL
- IgG+ Frequency [1]: 84.5 % total wells
- frequency per plate of rbIgG-positive wells (PMA 0.73 ng/ml, 0.031x CM, 5,000 non-irradiated EL-4 B5 cells per well): 76.2 % total
- frequency per plate of rbIgG-positive wells (PMA 0.73 ng/ml, 0.1x CM, 5,000 non-irradiated EL-4 B5 cells per well): 75.0 % total
- frequency per plate of rbIgG-positive wells (PMA 0.73 ng/ml, 0.31x CM, 5,000 non-irradiated EL-4 B5 cells per well): 67.9 % total
- frequency per plate of rbIgG-positive wells (PMA 0.73 ng/ml, 1x CM, 5,000 non-irradiated EL-4 B5 cells per well): 36.9 % total
- frequency per plate of rbIgG-positive wells (PMA 0.73 ng/ml, 2x CM, 5,000 non-irradiated (0 Gy) EL-4 B5 cells per well): 48.8 % total
- Average IgG Productivity of all IgG+ wells [2]: 4.937 µg/mL
- IgG+ Frequency [2]: 8.3 % total wells
- Average IgG Productivity of all IgG+ wells (PMA 1.3 ng/ml, 4 Gy, 20k/Well): 5.011 µg/mL
- IgG+ Frequency (PMA 1.3 ng/ml, 4 Gy, 20k/Well): 72.6 % total wells
- Average IgG Productivity of all IgG+ wells (PMA 1.3 ng/ml, 5 Gy, 20k/Well): 4.8 µg/mL
- IgG+ Frequency (PMA 1.3 ng/ml, 5 Gy, 20k/Well): 84.5 % total wells
- Average IgG Productivity of all IgG+ wells (PMA 1.3 ng/ml, 8 Gy, 20k/Well): 5.198 µg/mL
- IgG+ Frequency (PMA 1.3 ng/ml, 8 Gy, 20k/Well): 88.1 % total wells
- Average IgG Productivity of all IgG+ wells (PMA 1.3 ng/ml, 50 Gy, 50k/Well): 5.427 µg/mL
- IgG+ Frequency (PMA 1.3 ng/ml, 50 Gy, 50k/Well): 83.3 % total wells
- average productivity/plate, IgG+ wells [3]: 3.90 µg/mL
- frequency/plate rbIgG+ [3]: 54.0 % total
- average productivity/plate, IgG+ wells [4]: 3.90 µg/mL
- frequency/plate rbIgG+ [4]: 55.6 % total
- average productivity/plate, IgG+ wells [5]: 1.36 µg/mL
- frequency/plate rbIgG+ [5]: 52.4 % total
- average productivity/plate, IgG+ wells [6]: 3.72 µg/mL
- frequency/plate rbIgG+ [6]: 57.5 % total
- average productivity/plate, IgG+ wells [7]: 3.78 µg/mL
- frequency/plate rbIgG+ [7]: 56.0 % total
- average productivity/plate, IgG+ wells [8]: 3.83 µg/mL
- frequency/plate rbIgG+ [8]: 64.3 % total
- average productivity/plate, IgG+ wells [9]: 2.48 µg/mL
- frequency/plate rbIgG+ [9]: 54.4 % total
- average productivity/plate, IgG+ wells (c(PMA) 0.5 ng/ml, 4 Gy EL-4 B5): 4.06 µg/mL
- frequency/plate rbIgG+ (c(PMA) 0.5 ng/ml, 4 Gy EL-4 B5): 57.5 % total
- average productivity/plate, IgG+ wells (c(PMA) 1.3 ng/ml, 4 Gy EL-4 B5): 3.57 µg/mL
- frequency/plate rbIgG+ (c(PMA) 1.3 ng/ml, 4 Gy EL-4 B5): 56.0 % total
- average productivity/plate, IgG+ wells [10]: 3.51 µg/mL
- frequency/plate rbIgG+ [10]: 58.7 % total
